Experiments:
Experiment in all cases: KINOMEscan competition binding
Details in all cases: compound 10.0 µM
[1] = test system: ABL1 (human), P00519 [E255K]
CDK4 CCND1 (human) = CDK4 CCND1 (human) (UniProt P11802+P24385)
CDKL3 (human) = CDKL3 (human) (UniProt Q8IVW4)
CDKL5 (human) = CDKL5 (human) (UniProt O76039)
CPK1 (P.falciparum) = test system: CPK1 (P.falciparum)
CSNK1A1 (human) = CSNK1A1 (human) (UniProt P48729)
DYRK2 (human) = DYRK2 (human) (UniProt Q92630)
EPHB6 (human) = EPHB6 (human) (UniProt O15197)
ERBB3 (human) = ERBB3 (human) (UniProt P21860)
ERN1 (human) = ERN1 (human) (UniProt O75460)
GRK1 (human) = GRK1 (human) (UniProt Q15835)
GRK4 (human) = GRK4 (human) (UniProt P32298)
Sequence of GRK4 (human) (P32298 whole entry, looked up): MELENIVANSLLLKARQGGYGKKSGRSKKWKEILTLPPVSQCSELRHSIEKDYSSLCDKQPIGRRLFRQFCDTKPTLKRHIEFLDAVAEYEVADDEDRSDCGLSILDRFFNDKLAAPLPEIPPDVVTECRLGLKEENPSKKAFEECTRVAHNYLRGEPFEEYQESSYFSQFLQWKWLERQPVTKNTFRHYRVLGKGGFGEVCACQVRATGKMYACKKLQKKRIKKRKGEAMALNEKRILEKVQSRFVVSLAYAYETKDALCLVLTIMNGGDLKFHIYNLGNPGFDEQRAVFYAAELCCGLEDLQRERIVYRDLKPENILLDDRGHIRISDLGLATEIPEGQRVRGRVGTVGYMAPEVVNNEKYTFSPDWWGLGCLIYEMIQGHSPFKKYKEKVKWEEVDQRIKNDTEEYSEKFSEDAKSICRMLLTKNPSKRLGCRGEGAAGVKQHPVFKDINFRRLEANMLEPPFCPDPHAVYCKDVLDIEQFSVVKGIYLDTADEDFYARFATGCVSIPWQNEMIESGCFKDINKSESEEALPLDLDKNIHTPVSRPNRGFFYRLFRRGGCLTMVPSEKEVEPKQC

HIPK4 (human) = HIPK4 (human) (UniProt Q8NE63)
HUNK (human) = HUNK (human) (UniProt P57058)
Sequence of HUNK (human) (P57058 whole entry, looked up): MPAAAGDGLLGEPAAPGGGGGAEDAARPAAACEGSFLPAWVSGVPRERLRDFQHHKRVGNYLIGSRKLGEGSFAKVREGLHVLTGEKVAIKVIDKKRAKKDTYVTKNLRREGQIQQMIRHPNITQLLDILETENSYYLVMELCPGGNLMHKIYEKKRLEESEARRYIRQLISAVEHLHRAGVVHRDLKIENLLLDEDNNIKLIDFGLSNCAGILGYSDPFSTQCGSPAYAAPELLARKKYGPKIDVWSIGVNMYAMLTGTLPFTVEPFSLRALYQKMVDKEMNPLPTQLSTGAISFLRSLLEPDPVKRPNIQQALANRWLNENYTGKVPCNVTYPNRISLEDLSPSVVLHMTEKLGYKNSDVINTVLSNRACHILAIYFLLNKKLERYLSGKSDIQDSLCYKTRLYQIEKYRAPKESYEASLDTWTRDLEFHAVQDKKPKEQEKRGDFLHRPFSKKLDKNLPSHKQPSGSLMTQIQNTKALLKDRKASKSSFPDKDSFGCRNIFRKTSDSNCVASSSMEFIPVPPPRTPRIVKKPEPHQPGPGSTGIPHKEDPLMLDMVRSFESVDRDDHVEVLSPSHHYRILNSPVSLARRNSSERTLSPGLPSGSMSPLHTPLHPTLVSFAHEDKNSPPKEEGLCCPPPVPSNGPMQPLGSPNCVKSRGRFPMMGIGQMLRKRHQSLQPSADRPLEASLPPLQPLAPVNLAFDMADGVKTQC

IRAK4 (human) = IRAK4 (human) (UniProt Q9NWZ3)
MAK (human) = MAK (human) (UniProt P20794)
MAP2K7 (human) = MAP2K7 (human) (UniProt O14733)
MAP3K13 (human) = MAP3K13 (human) (UniProt O43283)
MAP3K15 (human) = MAP3K15 (human) (UniProt Q6ZN16)
MATK (human) = MATK (human) (UniProt P42679)
MET (human) = MET (human) (UniProt P08581)
NEK3 (human) = NEK3 (human) (UniProt P51956)
NEK4 (human) = NEK4 (human) (UniProt P51957)
PIK3CG (human) = PIK3CG (human) (UniProt P48736)
PIP4K2C (human) = PIP4K2C (human) (UniProt Q8TBX8)
PKN3 (M.tuberculosis) = PKN3 (M.tuberculosis) (UniProt Q6P5Z2)
PLK2 (human) = PLK2 (human) (UniProt Q9NYY3)
ROCK1 (human) = ROCK1 (human) (UniProt Q13464)
Sequence of ROCK1 (human) (Q13464 whole entry, looked up): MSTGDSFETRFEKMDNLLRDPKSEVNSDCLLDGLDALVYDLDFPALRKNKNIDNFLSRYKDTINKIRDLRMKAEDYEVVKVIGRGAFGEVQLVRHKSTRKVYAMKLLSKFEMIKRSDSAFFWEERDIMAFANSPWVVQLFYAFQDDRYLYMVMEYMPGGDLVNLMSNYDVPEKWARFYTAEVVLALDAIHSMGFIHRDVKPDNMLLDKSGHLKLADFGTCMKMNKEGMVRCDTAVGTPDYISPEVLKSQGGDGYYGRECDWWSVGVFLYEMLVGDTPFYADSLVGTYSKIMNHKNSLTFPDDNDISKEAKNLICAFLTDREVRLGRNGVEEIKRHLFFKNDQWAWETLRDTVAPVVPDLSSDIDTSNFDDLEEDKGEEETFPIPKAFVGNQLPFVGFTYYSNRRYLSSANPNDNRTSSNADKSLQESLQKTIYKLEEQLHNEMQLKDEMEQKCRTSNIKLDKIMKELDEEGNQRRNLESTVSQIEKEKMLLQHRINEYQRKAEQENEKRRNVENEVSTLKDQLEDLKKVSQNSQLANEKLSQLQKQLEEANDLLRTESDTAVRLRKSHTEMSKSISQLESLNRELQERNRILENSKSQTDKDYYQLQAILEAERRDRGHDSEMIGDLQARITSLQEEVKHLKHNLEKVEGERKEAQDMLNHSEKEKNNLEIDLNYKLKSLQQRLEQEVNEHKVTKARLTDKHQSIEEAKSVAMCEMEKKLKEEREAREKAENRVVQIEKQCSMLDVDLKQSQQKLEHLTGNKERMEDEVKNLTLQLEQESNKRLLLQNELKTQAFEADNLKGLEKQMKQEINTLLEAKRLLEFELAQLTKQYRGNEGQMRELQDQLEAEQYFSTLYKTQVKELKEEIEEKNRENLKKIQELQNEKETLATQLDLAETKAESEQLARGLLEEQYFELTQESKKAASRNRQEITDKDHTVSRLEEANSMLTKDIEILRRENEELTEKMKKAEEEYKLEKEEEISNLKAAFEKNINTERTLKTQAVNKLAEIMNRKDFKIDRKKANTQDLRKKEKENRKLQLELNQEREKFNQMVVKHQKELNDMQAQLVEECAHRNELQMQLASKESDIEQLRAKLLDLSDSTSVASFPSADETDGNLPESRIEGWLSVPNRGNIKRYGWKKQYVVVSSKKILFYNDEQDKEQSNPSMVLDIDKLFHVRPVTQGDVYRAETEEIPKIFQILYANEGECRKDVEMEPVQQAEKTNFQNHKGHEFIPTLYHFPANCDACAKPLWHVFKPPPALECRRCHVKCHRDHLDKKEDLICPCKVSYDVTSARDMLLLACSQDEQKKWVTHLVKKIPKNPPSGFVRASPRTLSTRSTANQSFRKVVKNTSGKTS

SNRK (human) = SNRK (human) (UniProt Q9NRH2)
STK32A (human) = STK32A (human) (UniProt Q8WU08)
TBK1 (human) = TBK1 (human) (UniProt Q9UHD2)
VRK2 (human) = VRK2 (human) (UniProt Q86Y07)
[2] = test system: EGFR (human), P00533 [G719S]
[3] = test system: EGFR (human), P00533 [P753S; 747-752 del]
[4] = test system: KIT (human), P10721 [V559D/T670I]
[5] = test system: PIK3CA (human), P42336 [E545K]
TIE1 (human) = TIE1 (human) (UniProt P35590)
Sequence of TIE1 (human) (P35590 whole entry, looked up): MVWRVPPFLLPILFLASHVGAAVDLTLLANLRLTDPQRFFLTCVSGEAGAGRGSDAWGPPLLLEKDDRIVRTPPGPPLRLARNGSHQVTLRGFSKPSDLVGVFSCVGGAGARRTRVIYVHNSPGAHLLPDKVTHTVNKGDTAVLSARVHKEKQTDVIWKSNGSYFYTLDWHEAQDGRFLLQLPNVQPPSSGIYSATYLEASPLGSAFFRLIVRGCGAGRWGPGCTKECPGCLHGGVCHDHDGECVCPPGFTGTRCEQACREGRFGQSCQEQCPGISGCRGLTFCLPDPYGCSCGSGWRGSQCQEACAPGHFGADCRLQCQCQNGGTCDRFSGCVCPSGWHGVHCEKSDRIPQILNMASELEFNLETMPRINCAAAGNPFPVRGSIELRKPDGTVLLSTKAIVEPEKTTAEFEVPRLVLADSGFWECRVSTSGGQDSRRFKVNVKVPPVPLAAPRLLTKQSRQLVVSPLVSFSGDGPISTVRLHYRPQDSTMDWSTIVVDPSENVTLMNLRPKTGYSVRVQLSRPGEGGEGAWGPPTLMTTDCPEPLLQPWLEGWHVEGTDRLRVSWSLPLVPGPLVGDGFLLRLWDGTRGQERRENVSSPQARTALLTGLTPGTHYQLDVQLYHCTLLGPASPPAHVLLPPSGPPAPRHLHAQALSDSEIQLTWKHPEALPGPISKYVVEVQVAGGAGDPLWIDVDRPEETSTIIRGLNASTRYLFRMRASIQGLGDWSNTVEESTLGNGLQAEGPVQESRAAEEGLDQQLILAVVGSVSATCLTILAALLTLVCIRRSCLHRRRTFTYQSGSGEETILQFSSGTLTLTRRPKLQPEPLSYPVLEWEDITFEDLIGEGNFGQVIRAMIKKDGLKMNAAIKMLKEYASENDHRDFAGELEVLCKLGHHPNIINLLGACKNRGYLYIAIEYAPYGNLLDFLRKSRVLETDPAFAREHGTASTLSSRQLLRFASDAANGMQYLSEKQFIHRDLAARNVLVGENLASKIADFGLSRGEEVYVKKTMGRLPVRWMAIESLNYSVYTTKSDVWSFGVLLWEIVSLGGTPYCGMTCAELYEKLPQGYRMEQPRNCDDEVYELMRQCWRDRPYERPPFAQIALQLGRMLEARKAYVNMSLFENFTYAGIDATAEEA

YSK4 (human) = YSK4 (human) (UniProt Q56UN5)
[6] = test system: PIK3CA (human), P42336 [C420R]

Sequence of CDKL3 (human) (Q8IVW4 whole entry, looked up): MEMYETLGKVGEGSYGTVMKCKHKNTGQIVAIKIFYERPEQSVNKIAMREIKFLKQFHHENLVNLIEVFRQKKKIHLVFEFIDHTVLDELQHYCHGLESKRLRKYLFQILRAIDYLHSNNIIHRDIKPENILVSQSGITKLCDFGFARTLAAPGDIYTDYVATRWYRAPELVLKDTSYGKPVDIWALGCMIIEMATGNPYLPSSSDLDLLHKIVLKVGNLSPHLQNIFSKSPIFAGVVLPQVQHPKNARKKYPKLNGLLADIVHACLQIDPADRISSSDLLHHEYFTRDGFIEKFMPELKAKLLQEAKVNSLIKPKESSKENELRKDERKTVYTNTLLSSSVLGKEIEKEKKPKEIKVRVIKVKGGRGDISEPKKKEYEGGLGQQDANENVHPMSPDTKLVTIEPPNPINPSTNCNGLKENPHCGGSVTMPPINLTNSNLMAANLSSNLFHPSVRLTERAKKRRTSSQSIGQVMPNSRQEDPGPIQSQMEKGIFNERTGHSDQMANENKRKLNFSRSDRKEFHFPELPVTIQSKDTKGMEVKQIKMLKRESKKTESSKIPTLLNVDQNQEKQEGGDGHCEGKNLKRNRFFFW
Sequence of DYRK2 (human) (Q92630 whole entry, looked up): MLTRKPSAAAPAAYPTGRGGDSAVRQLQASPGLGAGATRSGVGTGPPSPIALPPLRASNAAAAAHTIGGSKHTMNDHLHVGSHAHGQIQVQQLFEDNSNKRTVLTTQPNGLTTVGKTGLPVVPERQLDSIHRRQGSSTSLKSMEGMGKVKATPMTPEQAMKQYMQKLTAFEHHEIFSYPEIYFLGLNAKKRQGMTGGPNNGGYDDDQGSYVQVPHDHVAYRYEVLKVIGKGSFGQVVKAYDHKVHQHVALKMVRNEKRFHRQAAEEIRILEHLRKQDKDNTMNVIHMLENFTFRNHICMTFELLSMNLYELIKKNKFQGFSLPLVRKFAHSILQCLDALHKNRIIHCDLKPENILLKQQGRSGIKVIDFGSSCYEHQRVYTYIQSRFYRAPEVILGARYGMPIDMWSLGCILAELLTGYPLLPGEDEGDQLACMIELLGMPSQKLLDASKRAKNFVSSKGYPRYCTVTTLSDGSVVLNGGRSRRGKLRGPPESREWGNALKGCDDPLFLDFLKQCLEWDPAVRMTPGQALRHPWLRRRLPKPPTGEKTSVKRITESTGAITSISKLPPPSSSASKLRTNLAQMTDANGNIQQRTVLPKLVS

| SMILES | kinase still bound, per cent of control [1] [%] | kinase still bound, per cent of control (CDKL3 (human)) [%] | kinase still bound, per cent of control (CDKL5 (human)) [%] | kinase still bound, per cent of control (DYRK2 (human)) [%] | kinase still bound, per cent of control (EPHB6 (human)) [%] | kinase still bound, per cent of control (ERBB3 (human)) [%] | kinase still bound, per cent of control (ERN1 (human)) [%] | kinase still bound, per cent of control (GRK1 (human)) [%] | kinase still bound, per cent of control (GRK4 (human)) [%] | kinase still bound, per cent of control (HIPK4 (human)) [%] | kinase still bound, per cent of control (HUNK (human)) [%] | kinase still bound, per cent of control (MAK (human)) [%] | kinase still bound, per cent of control (MAP3K13 (human)) [%] | kinase still bound, per cent of control (MET (human)) [%] | kinase still bound, per cent of control (PIK3CG (human)) [%] | kinase still bound, per cent of control [2] [%] | kinase still bound, per cent of control [3] [%] | kinase still bound, per cent of control [4] [%] | kinase still bound, per cent of control [5] [%] | kinase still bound, per cent of control (TIE1 (human)) [%] | also measured |
| --- | --- | --- | --- | --- | --- | --- | --- | --- | --- | --- | --- | --- | --- | --- | --- | --- | --- | --- | --- | --- | --- |
| CCOc1cc2ncc(C#N)c(Nc3ccc(OCc4ccccn4)c(Cl)c3)c2cc1NC(=O)/C=C/CN(C)C | 100 | 100 | 100 | 64 | 83 | 0.1 | 80 | 84 | 68 | 42 | 86 | 100 | 86 | 84 | 91 |  |  |  |  |  | kinase still bound, per cent of control (CDK4 CCND1 (human)): 71%; kinase still bound, per cent of control (CPK1 (P.falciparum)): 88%; kinase still bound, per cent of control (CSNK1A1 (human)): 100%; kinase still bound, per cent of control (IRAK4 (human)): 96%; kinase still bound, per cent of control (MAP2K7 (human)): 49%; kinase still bound, per cent of control (MAP3K15 (human)): 100%; kinase still bound, per cent of control (MATK (human)): 71%; kinase still bound, per cent of control (NEK3 (human)): 41%; kinase still bound, per cent of control (NEK4 (human)): 100%; kinase still bound, per cent of control (PIP4K2C (human)): 100%; kinase still bound, per cent of control (PKN3 (M.tuberculosis)): 100%; kinase still bound, per cent of control (PLK2 (human)): 85%; kinase still bound, per cent of control (ROCK1 (human)): 100%; kinase still bound, per cent of control (SNRK (human)): 51%; kinase still bound, per cent of control (STK32A (human)): 77%; kinase still bound, per cent of control (TBK1 (human)): 100%; kinase still bound, per cent of control (VRK2 (human)): 67% |
| C=CC(=O)Nc1cccc(Oc2nc(Nc3ccc(N4CCN(C)CC4)cc3OC)ncc2Cl)c1 | 100 |  |  |  |  |  |  |  |  |  |  |  |  | 20 | 100 | 0.3 | 0.4 | 100 | 100 | 100 |  |
| Cc1ccc(C(=O)Nc2cccc(C(F)(F)F)c2)cc1Nc1cncc(C(N)=O)c1 | 100 |  |  |  |  |  |  |  |  |  |  |  |  | 100 | 100 | 100 | 100 | 100 | 100 | 100 |  |
| Cn1c(=O)n(-c2ccc(C(C)(C)C#N)cc2)c2c3cc(-c4cnc5ccccc5c4)ccc3ncc21 | 100 | 100 | 100 | 100 | 100 | 100 | 100 | 100 | 100 | 100 | 100 | 100 | 100 |  | 23 | 100 | 100 | 100 | 3 | 100 | kinase still bound, per cent of control (MAP3K15 (human)): 100%; kinase still bound, per cent of control (MATK (human)): 100%; kinase still bound, per cent of control (PLK2 (human)): 100%; kinase still bound, per cent of control (ROCK1 (human)): 100%; kinase still bound, per cent of control (TBK1 (human)): 100%; kinase still bound, per cent of control (YSK4 (human)): 29% |
| OCCCNc1cc(-c2ccnc(Nc3cccc(Cl)c3)n2)ccn1 | 100 | 5.4 | 9.4 | 100 | 100 | 100 | 100 | 100 | 100 | 14 | 100 | 4.6 | 100 | 100 | 100 | 100 | 100 | 100 | 100 | 100 | kinase still bound, per cent of control (MAP3K15 (human)): 100%; kinase still bound, per cent of control (MATK (human)): 100%; kinase still bound, per cent of control [6]: 100%; kinase still bound, per cent of control (PLK2 (human)): 100%; kinase still bound, per cent of control (ROCK1 (human)): 100%; kinase still bound, per cent of control (TBK1 (human)): 100%; kinase still bound, per cent of control (YSK4 (human)): 100% |
| CC[C@@H]1C(=O)N(C)c2cnc(Nc3ccc(C(=O)NC4CCN(C)CC4)cc3OC)nc2N1C1CCCC1 | 100 |  |  |  |  |  |  |  |  |  |  |  |  |  | 100 |  |  | 100 | 100 | 100 |  |
| COc1cc(C(=O)NC2CCN(C)CC2)ccc1Nc1ncc2c(n1)N(C1CCCC1)C(C)CC(=O)N2C (stereo not given) | 100 |  |  |  |  |  |  |  |  |  |  |  |  | 100 | 100 | 100 | 100 | 100 | 100 | 100 |  |
| COc1cc(C(=O)NC2CCN(C)CC2)ccc1Nc1ncc2c(n1)N(C1CCCC1)CCC(=O)N2C(C)C | 100 | 100 | 100 | 100 | 100 | 100 | 100 | 100 | 100 | 100 | 100 | 100 | 100 | 100 | 100 | 100 | 100 | 100 | 100 | 100 | kinase still bound, per cent of control (MAP3K15 (human)): 100%; kinase still bound, per cent of control (MATK (human)): 100%; kinase still bound, per cent of control [6]: 100%; kinase still bound, per cent of control (PLK2 (human)): 100%; kinase still bound, per cent of control (ROCK1 (human)): 100%; kinase still bound, per cent of control (TBK1 (human)): 100%; kinase still bound, per cent of control (YSK4 (human)): 100% |
